Reference: patent EP0549352B1, “Tricyclic compounds as angiotensin II antagonists” (KYOWA HAKKO KOGYO CO., LTD., priority 1991, dated 1993)

Biological target: T1, AII receptor (Bos taurus, UniProt P25104)
T1 construct: Tissue of bovine adrenal cortex was finely cut and suspended; from tissue; host or cells: bovine adrenal cortex membrane fraction
T1 sequence (P25104 1-359): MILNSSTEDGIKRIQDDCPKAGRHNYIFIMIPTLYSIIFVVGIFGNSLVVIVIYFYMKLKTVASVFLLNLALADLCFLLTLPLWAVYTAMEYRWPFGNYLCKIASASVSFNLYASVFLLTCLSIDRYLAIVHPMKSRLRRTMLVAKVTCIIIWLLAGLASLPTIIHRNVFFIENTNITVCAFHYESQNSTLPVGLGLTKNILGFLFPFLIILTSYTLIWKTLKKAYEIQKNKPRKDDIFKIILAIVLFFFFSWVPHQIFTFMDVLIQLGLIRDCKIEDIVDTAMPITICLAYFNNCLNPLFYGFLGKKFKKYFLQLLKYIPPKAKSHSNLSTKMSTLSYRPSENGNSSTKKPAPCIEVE
Assay: Receptor binding test using bovine adrenal cortex ([125I]AII binding)
Conditions: test compound 0.1 µM; receptor binding of [125I]AII (2.5 × 10^-10M); bovine adrenal cortex membranes; room temperature, 2 hours; 0.1 µM
Protocol: Receptor binding test using bovine adrenal cortex
Tissue of bovine adrenal cortex was finely cut and suspended in a 0.25M sucrose solution containing NaHCO3, ethylenediaminetetraacetic acid (EDTA), leupepsin, pepstatin A and phenylmethanesulfonyl fluoride, followed by homogenization. The homogenate was centrifuged at 3,000 rpm for 10 minutes and the supernatant was centrifuged at 9,000 rpm. Then, the supernatant was further centrifuged at 30,000 rpm for 60 minutes and the precipitate was suspended in NaHCO3-EDTA solution, followed by centrifugation at 30,000 rpm for 60 minutes. The resulting precipitate was suspended in a phosphate buffer and the suspension was used for the binding test as an AII receptor source.
To a test compound or a solvent were added 250 µl of the AII receptor solution prepared above, 250 µl of Tris 50 mM buffer containing 0.2% bovine serum albumin (BSA), and 20 µl of [^125I]AII (2.5 × 10^-10M). The mixture was allowed to stand at room temperature for 2 hours and then filtered through a glass fiber filter (GF/B Wattman). The filter was placed in a test tube and the radioactivity was measured using a gamma-counter.
The inhibitory activity (inhibition rate) of the test compound (0.1 µM) against the receptor binding of [^125I]AII was calculated by the following equation. Inhibition Rate (%) =(1-((Binding Amount in the Presence of a Test Compound)-(Nonspecific Binding Amount))/((Total Binding Amount)-(Nonspecific Binding Amount)))× 100 [formula]
The binding amount in the presence of a test compound is the amount of radioactivity of [^125I]AII bound in the presence of a test compound (0.1 µM).
The total binding amount is the amount of radioactivity of [^125I]AII bound in the absence of a test compound.
The nonspecific binding amount is the amount of radioactivity of [^125I]AII bound in the presence of 1 µM AII.

| Structure (SMILES) | Inhibition Rate (%) |
| --- | --- |
| CCc1nc2c(C)cc(C)nc2n1Cc1ccc2c(c1)CCc1ccccc1C2=Cc1nnn[nH]1 (single isomer, unassigned) [Compound 20B, 2-(5,7-Dimethyl-2-ethyl-3H-imidazo[4,5-b]pyridin-3-yl)methyl-5-(1H-tetrazol-5-yl)methylene-5H-10,11-dihydrodibenzo[a,d]cycloheptene] | 88% |
| CCc1nc2c(C)cc(C)nc2n1Cc1ccc2c(c1)OCc1ccccc1C2=Cc1nnn[nH]1 [Compound 6-E, 3-(5,7-Dimethyl-2-ethyl-3H-imidazo[4,5-b]pyridin-3-yl)methyl-11-(1H-tetrazol-5-yl)methylene-6,11-dihydrodibenz[b,e]oxepine] | 87% |

Same assay, conditions: test compound 0.1 µM; receptor binding of [125I]AII (2.5 × 10^-10M); bovine adrenal cortex membranes; room temperature, 2 hours; listed as 6-Z*, 0.1 µM

| Structure (SMILES) | Inhibition Rate (%) |
| --- | --- |
| CCc1nc2c(C)cc(C)nc2n1Cc1ccc2c(c1)OCc1ccccc1C2=Cc1nnn[nH]1 [Compound 6-Z, 3-(5,7-Dimethyl-2-ethyl-3H-imidazo[4,5-b]pyridin-3-yl)methyl-11-(1H-tetrazol-5-yl)methylene-6,11-dihydrodibenz[b,e]oxepine] | 66% |

Same assay, conditions: test compound 0.1 µM; receptor binding of [125I]AII (2.5 × 10^-10M); bovine adrenal cortex membranes; room temperature, 2 hours; read-out: Inhibition Rate (%)

| Structure (SMILES) | inhibition at 0.1 µM |
| --- | --- |
| CCc1nc2c(C)cc(C)nc2n1Cc1ccc2c(c1)CCc1ccccc1C2=Cc1nnn[nH]1 (single isomer, unassigned) [Compound 20A, 2-(5,7-Dimethyl-2-ethyl-3H-imidazo[4,5-b]pyridin-3-yl)methyl-5-(1H-tetrazol-5-yl)methylene-5H-10,11-dihydrodibenzo[a,d]cycloheptene] | 70% |
| CCCc1nc2c(C)cccc2n1Cc1ccc2c(c1)OCc1ccccc1C2=CC(=O)O [Compound 1, [3-(4-Methyl-2-propylbenzimidazol-1-yl)methyl-6,11-dihydrodibenz[b,e]oxepin-11-yliden]acetic acid] | 43% |
| CCc1nc2c(C)cc(C)nc2n1Cc1ccc2c(c1)OCc1ccccc1C2=CC(=O)O [Compound 3, [3-(5,7-Dimethyl-2-ethyl-3H-imidazo[4,5-b]pyridin-3-yl)methyl-6,11-dihydrodibenz[b,e]oxepin-11-yliden]acetic acid] | 78% |
| CCc1nc2c(C)cc(C)nc2n1Cc1ccc2c(c1)C=Cc1ccc(F)cc1C2=CC(=O)O [Compound 4, [2-(5,7-Dimethyl-2-ethyl-3H-imidazo[4,5-b]pyridin-3-yl)methyl-7-fluoro-5H-dibenzo[a,d]cyclohepten-5-yliden]acetic acid] | 77% |
| CCc1nc2c(C)cc(C)nc2n1Cc1ccc2c(c1)OCc1ccc(Br)cc1C2=CC(=O)O [Compound 7, [9-Bromo-3-(5,7-dimethyl-2-ethyl-3H-imidazo[4,5-b]pyridin-3-yl)methyl-6,11-dihydrodibenz[b,e]oxepin-11-yliden]acetic acid] | 52% |
| CCc1nc2c(C)cc(C)nc2n1Cc1ccc2c(c1)OCc1ccsc1C2=CC(=O)O [Compound 11, [7-(5,7-Dimethyl-2-ethyl-3H-imidazo[4,5-b]pyridin-3-yl)methyl-4,10-dihydrothieno[3,2-c][1]benzoxepin-10-yliden]acetic acid] | 84% |
| CCc1nc2c(C)cc(C)nc2n1Cc1ccc2c(c1)C=Cc1sccc1C2=CC(=O)O [Compound 12, [7-(5,7-Dimethyl-2-ethyl-3H-imidazo[4,5-b]pyridin-3-yl)methyl-4H-benzo[4,5]cyclohepte[1,2-b]thiophen-4-yliden]acetic acid] | 72% |
| CCc1nc2c(C)cc(C)nc2n1Cc1ccc2c(c1)CCc1ccccc1C2=CC(=O)O [Compound 16, [2-(5,7-Dimethyl-2-ethyl-3H-imidazo[4,5-b]pyridin-3-yl)methyl-5H-10,11-dihydrodibenzo[a,d]cyclohepten-5-yliden]acetic acid] | 91% |
| CCc1nc2c(C)cc(C)nc2n1Cc1ccc2c(c1)COc1ccccc1C2=Cc1nnn[nH]1 [Compound 18-Z, 8-(5,7-Dimethyl-2-ethyl-3H-imidazo[4,5-b]pyridin-3-yl)methyl-11-(1H-tetrazol-5-yl)methylene-6,11-dihydrodibenz[b,e]oxepine] | 81% |
